Where two headings read alike, the source gives them in different places.
Assay: Pharmacokinetic study of abiraterone in hormone refractory prostate cancer patients, oral doses 250-2000 mg/day, fasted
Format: in vivo, human
Settings: mean, fasted, plasma; for AUC(0-t) / Cmax / Tmax / AUC(0-inf): male, human; for AUC(0-inf): read-out: AUCINF_obs
Protocol: A group of 15 subjects was divided into five groups. Members of each group were orally administered doses of 250 mg/day, 500 mg/day, 750 mg/day, 1000 mg/day or 2000 mg/day once a day. Before administration the subjects had fasted. PK blood samples were measured at 1, 2, 4, 6, 8, 24, and 72 hours post dose.
To measure the amount of abiraterone and abiraterone acetate in the samples, these compounds were extracted from 100 uL human plasma using solid phase extraction (SPE) with cation mixed-mode polymer cartridges. Extracts were evaporated to dryness before reconstitution and analysis. Chromatography was carried out using a Luna™ C5 column (5 μm, 50 mm×2.1 mm id) with a gradient mobile phase consisting of 10 mM ammonium acetate and 2% propan-2-ol in acetonitrile. The flow rate was 0.2 mL/min and the run time 10.5 minutes. Abiraterone and abiraterone acetate were ionized using the electrospray interface in positive ion mode. Detection of analytes was via tandem mass spectrometry (MS/MS) in the multiple reaction monitoring (MRM) mode.
PK modeling was conducted using a non-compartmental model, extra vascular input for plasma with WinNonLin Software®. Pharmacokinetic parameters estimated in the model include: […]

[1] = 250 mg/day abiraterone acetate oral
[2] = 500 mg/day abiraterone acetate oral
[3] = 750 mg/day abiraterone acetate oral
[4] = 1000 mg/day abiraterone acetate oral
[5] = 2000 mg/day abiraterone acetate oral

AUC(0-t) [1]: 1.25 µM·h | Cmax [1]: 219 nM | Tmax [1]: 2.05 h | AUC(0-inf) [1]: 1.37 µM·h | AUC(0-t) [2]: 1.33 µM·h | Cmax [2]: 284 nM | Tmax [2]: 2.59 h | AUC(0-inf) [2]: 1.45 µM·h | AUC(0-t) [3]: 4.29 µM·h | Cmax [3]: 1030 nM | Tmax [3]: 1.71 h | AUC(0-inf) [3]: 4.54 µM·h | AUC(0-t) [4]: 5.03 µM·h | Cmax [4]: 659 nM | Tmax [4]: 3.09 h | AUC(0-inf) [4]: 5.32 µM·h | AUC(0-t) [5]: 4.75 µM·h | Cmax [5]: 531 nM | Tmax [5]: 2.67 h | AUC(0-inf) [5]: 4.98 µM·h | Cl_F_obs [1]: 567.2 L/h | HL_Lambda_z [1]: 11.6 h | Vz_F_obs [1]: 10772.0 L | Cl_F_obs [2]: 1347.2 L/h | HL_Lambda_z [2]: 9.5 h | Vz_F_obs [2]: 14032.5 L | Cl_F_obs [3]: 494 L/h | HL_Lambda_z [3]: 10.8 h | Vz_F_obs [3]: 8340 L | Cl_F_obs [4]: 861.6 L/h | HL_Lambda_z [4]: 9.9 h | Vz_F_obs [4]: 10125.5 L | Cl_F_obs [5]: 1280.3 L/h | HL_Lambda_z [5]: 12.0 h | Vz_F_obs [5]: 21598.8 L
SMILES: C[C@]12CC[C@H](O)CC1=CC[C@@H]1[C@@H]2CC[C@]2(C)C(c3cccnc3)=CC[C@@H]12 [Abiraterone]
